From paper PMC4774534 (Antiviral Research, 2015)
Structures can show the parent of a compound that is named as a salt. Where two headings read alike, the source gives them in different places.

What was measured:
[1] = system: SARS-CoV Toronto-2 strain in Vero 76 cells; type: cell-based; conditions: read-out: CPE inhibition IC50
[2] = system: SARS-CoV Urbani strain in Vero 76 cells; type: cell-based; conditions: read-out: Neutral red (NR) assay IC50
[3] = system: SARS-CoV Urbani strain in Vero 76 cells; type: cell-based; conditions: read-out: Virus yield reduction IC90
[4] = system: SARS-CoV Toronto-2 strain in Vero 76 cells; type: cell-based; conditions: read-out: Neutral red (NR) assay IC50
[5] = system: SARS-CoV Urbani strain in Vero 76 cells; type: cell-based; conditions: read-out: CPE inhibition IC50
[6] = system: SARS-CoV Toronto-2 strain in Vero 76 cells; type: cell-based; conditions: read-out: Virus yield reduction IC90
[7] = system: replication competent SARS-CoV (Urbani and Toronto-2); type: cell-based
[8] = system: EBOV pseudotyped virus on 293T-ACE2 cells; type: cell-based; conditions: read-out: HIV-luc (EBOV GP) IC50
[9] = system: SARS-CoV S pseudotyped virus on 293T-ACE2 cells; type: cell-based; conditions: read-out: HIV-luc (SARS-CoV S) IC50
[10] = system: Ebola pseudovirus on 293T-CD13 cells transiently expressing TMPRSS2; type: cell-based, EBOV
[11] = system: VSV-G pseudovirus on 293T-CD13 cells transiently expressing TMPRSS2; type: cell-based

Molecule: (2S)-N-[(1E,3S)-1-(benzenesulfonyl)-5-phenylpent-1-en-3-yl]-2-{[(E)-4-tert-butylpiperazine-1-carbonyl]amino}-3-phenylpropanamide [SMDC-256160]
- IC50 [1]: < 50 nM
- IC50 [2]: < 130 nM
- IC90 [3]: 0.49 µM
- IC50 [4]: 320 nM
- IC50 [5]: < 80 nM
- IC90 [6]: 12.2 µM
- 90% reduction in viral yields, range over strains [7]: 0.49 to 12.2 µM
- IC50 ([7]; read-out: IC50 values, range over strains and readouts): 50 to 320 nM
- IC50 [8]: 0.11 ± 0.03 nM
- IC50 [9]: 0.08 ± 0.01 nM

Molecule: CC(C)N1CCN(C(=O)N[C@@H](Cc2ccccc2)C(=O)N[C@H](/C=C/S(=O)(=O)c2ccccc2)CCc2ccccc2)CC1 [SMDC-256123, (2S)-N-[(1E,3S)-1-(benzenesulfonyl)-5-phenylpent-1-en-3-yl]-2-{[(E)-4-(propan-2-yl)piperazine-1-carbonyl]amino}-3-phenylpropanamide]
- IC50 [8]: 0.25 ± 0.07 nM
- IC50 [9]: 0.11 ± 0.01 nM

Molecule: CN(C)C(=O)COC(=O)Cc1ccc(OC(=O)c2ccc(NC(=N)N)cc2)cc1 [camostat, camostat mesylate]
- effect on Ebola pseudovirus infection [10]: no impact
- effect on VSV-G driven viral entry [11]: no impact

Molecule: O=C(N[C@H](/C=C/S(=O)(=O)c1ccccc1)CCc1ccccc1)[C@H](Cc1ccccc1)NC(=O)N1CCN(CC2CC2)CC1 [SMDC-256162, (2S)-N-[(1E,3S)-1-(benzenesulfonyl)-5-phenylpent-1-en-3-yl]-2-{[(E)-4-(cyclopropylmethyl)piperazine-1-carbonyl]amino}-3-phenylpropanamide]
- IC50 [8]: 0.1 ± 0.01 nM
- IC50 [9]: 0.16 ± 0.03 nM

Molecule: O=C(N[C@H](/C=C/S(=O)(=O)c1ccccc1)CCc1ccccc1)[C@H](Cc1ccccc1)NC(=O)N1CCN(c2ccccc2)CC1 [SMDC-256158, (2S)-N-[(1E,3S)-1-(benzenesulfonyl)-5-phenylpent-1-en-3-yl]-2-{[(E)-4-phenylpiperazine-1-carbonyl]amino}-3-phenylpropanamide]
- IC50 [8]: 2.69 ± 0.43 nM
- IC50 [9]: 2.49 ± 0.34 nM

Molecule: CCCN1CCN(C(=O)N[C@@H](Cc2ccccc2)C(=O)N[C@H](/C=C/S(=O)(=O)c2ccccc2)CCc2ccccc2)CC1 [SMDC-256157, (2S)-N-[(1E,3S)-1-(benzenesulfonyl)-5-phenylpent-1-en-3-yl]-2-{[(E)-4-propylylpiperazine-1-carbonyl]amino}-3-phenylpropanamide]
- IC50 [8]: 0.42 ± 0.03 nM
- IC50 [9]: 0.24 ± 0.03 nM

Molecule: O=C(N[C@H](/C=C/S(=O)(=O)c1ccccc1)CCc1ccccc1)[C@H](Cc1ccccc1)NC(=O)N1CCN(C2CCCC2)CC1 [SMDC-256161, (2S)-N-[(1E,3S)-1-(benzenesulfonyl)-5-phenylpent-1-en-3-yl]-2-{[(E)-4-cyclopentylpiperazine-1-carbonyl]amino}-3-phenylpropanamide]
- IC50 [8]: 0.18 ± 0.01 nM
- IC50 [9]: 0.25 ± 0.16 nM

Molecule: CCN1CCN(C(=O)N[C@@H](Cc2ccccc2)C(=O)N[C@H](/C=C/S(=O)(=O)c2ccccc2)CCc2ccccc2)CC1 [SMDC-256122, (2S)-N-[(1E,3S)-1-(benzenesulfonyl)-5-phenylpent-1-en-3-yl]-2-{[(E)-4-ethylpiperazine-1-carbonyl]amino}-3-phenylpropanamide]
- IC50 [8]: 0.12 ± 0.01 nM
- IC50 [9]: 0.04 ± 0.01 nM

Molecule: COCCN1CCN(C(=O)N[C@@H](Cc2ccccc2)C(=O)N[C@H](/C=C/S(=O)(=O)c2ccccc2)CCc2ccccc2)CC1 [SMDC-256159, (2S)-N-[(1E,3S)-1-(benzenesulfonyl)-5-phenylpent-1-en-3-yl]-2-{[(E)-4-(2-methoxyethyl)piperazine-1-carbonyl]amino}-3-phenylpropanamide]
- IC50 [1]: < 480 nM
- IC50 [2]: < 2260 nM
- IC90 [3]: 7.1 ± 7.6 µM
- IC50 [4]: 650 nM
- IC50 [5]: 650 ± 810 nM
- 90% reduction in viral yields, range over strains [7]: <0.48 to 7.1 µM
- IC50 [8]: 0.16 ± 0.02 nM
- IC50 [9]: 0.07 ± 0.02 nM
